One series concerns the target T1, CK1δ (Homo sapiens, UniProt P48730).
T1 construct: Recombinant human full-length construct; GST; host or cells: insect cells
T1 sequence (P48730 1-409 isoform P48730-2): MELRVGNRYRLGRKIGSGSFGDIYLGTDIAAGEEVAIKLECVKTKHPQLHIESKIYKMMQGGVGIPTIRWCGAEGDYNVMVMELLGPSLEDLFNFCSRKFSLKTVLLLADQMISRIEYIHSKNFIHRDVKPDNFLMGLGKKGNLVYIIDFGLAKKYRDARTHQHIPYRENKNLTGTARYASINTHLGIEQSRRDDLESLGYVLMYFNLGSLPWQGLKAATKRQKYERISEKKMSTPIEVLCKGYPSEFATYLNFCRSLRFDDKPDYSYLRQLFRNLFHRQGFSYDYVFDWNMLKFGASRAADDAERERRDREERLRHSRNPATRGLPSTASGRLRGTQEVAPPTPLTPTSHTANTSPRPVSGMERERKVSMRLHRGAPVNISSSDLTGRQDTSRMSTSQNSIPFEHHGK
As to the kind of experiment: CK1δ inhibition assay (33P-ATP, CK1tide substrate). Particulars: range of kinase inhibition assays. In kind it is biochemical. On the procedure: The compounds of the invention may be tested for inhibition of casein kinase 1 delta (CK1δ) in accordance with the assay protocols described in US 2010/0152157, EP 1,636,375 or Hanger et al (2007) J. Biol. Chem. 282, 23645-23654. In particular, the assay was conducted in accordance with the following protocol:
(§1) Base Reaction buffer; 20 mM Hepes (pH 7.5), 10 mM MgCl2, 1 mM EGTA, 0.02% Brij35, 0.02 mg/ml BSA, 0.1 mM Na3VO4, 2 mM DTT, 1% DMSO
(§2) It should be noted that required cofactors are added individually to each kinase reaction.
(§3) • 1. Prepare indicated substrate in freshly prepared Base Reaction Buffer as described above • 2. Deliver any required cofactors to the substrate solution • 3. Deliver indicated kinase into the substrate solution and gently mix • 4. Deliver compounds in DMSO into the kinase reaction mixture • 5. Deliver ^33P-ATP (specific activity 0.01 μCi/μl final) into the reaction mixture to initiate the reaction • 6. Incubate kinase reaction for 120 min. at room temperature • 7. Reactions are spotted onto P81 ion exchange paper (Whatman #3698-915) • 8. Wash filters extensively in 0.75% Phosphoric acid Kinase Information: • CK1δ—Genbank Accession # NP_620693 • Recombinant human full-length construct. GST-tagged, expressed in insect cells. • Final concentration in assay=4 nM • Substrate: CK1tide • Substrate sequence: [KRRRAL[pS]VASLPGL] • Final substrate concentration in assay=20 μM • It should be noted that no additional cofactors are added to the reaction mixture.

For a further series, the target named is CK1g3 (Homo sapiens, UniProt Q9Y6M4). As to the kind of experiment: kinase inhibition assay panel. Format: biochemical.
The target of the next series is CLK2 (Homo sapiens, UniProt P49760). As to the kind of experiment: kinase inhibition assay panel. In kind it is biochemical.
For a further series, the target named is JNK2 (Homo sapiens, UniProt P45984). As to the kind of experiment: kinase inhibition assay panel. In kind it is biochemical. On the procedure:
as §1, §2, §3

The subject of a further series is SH-SY5Y-TMHT cells. As to the kind of experiment: Cell viability, MTT assay. Format: cell-based, human. Particulars: 6 h of treatment. On the procedure:
(§4) SH-SY5Y-TMHT cells are kept in culture medium (DMEM medium, 10% FCS, 1% NEAA, 1% L-Glutamine, 100 μg/ml Gentamycin, 300 μg/ml Geneticin G-418) for 2 days until 80-90% confluency. Cells are then differentiated in culture medium supplemented with 10 μM retinoic acid (RA) for 7 days changing medium every 2 to 3 days. Differentiated cells are seeded onto 6-well plates and 96-well plates at a cell density of 1.25×10^6 and 8×10^5 cells per well, respectively. On day 8 post-differentiation, the test compounds, reference compounds and vehicle control were added to the culture medium. After 6 h of compound exposure one plate of cells is subjected to a MTT assay to evaluate the effect of test and reference items on cell viability. Remaining wells are washed once with cold PBS and harvested in 300 μl RIPA-Buffer [50 mM Tris pH 7.4, 1% Nonident P40, 0.25% Na-deoxy-cholate, 150 mM NaCl, 1 mM EDTA, 1 μM NaF, 1 μM Na-ortho-vanadate, 80 mM Glycerophosphate, supplemented with freshly added protease (Calbiochem) and phosphatase (Sigma) inhibitor cocktail]. The cell suspension is transferred into a 1.5 ml tube and additionally lysed by sonication on ice. An aliquot of 20 μl is taken for the determination of the protein concentration (BCA assay). Subsequently, the lysates are snap frozen and stored at −80° C. until shipment.
To determine compound activity, it is necessary to control for potential cell toxicity of all molecules. Viability of cultures is determined by the MTT assay. This assay allows the measurement of the mitochondrial dehydrogenase activity which reduces yellow MTT to dark blue formazan crystals. Since this reaction is catalyzed in living cells only this assay is used for the determination of cell viability. MTT solution is added to each well in a final concentration of 0.5 mg/ml. After 2 hours, the MTT containing medium is aspired. Cells are lysed in 3% SDS and the formazan crystals are dissolved in isopropanol/HCl. Optical density is measured with a plate-reader at wavelength 570 nm. Cell survival rate is expressed as optical density (OD). Values are calculated as percent of control values.
Cell viability was determined in differentiated SH-SY5Y-TMHT cells by the MTT assay. Test and reference compounds were applied in a concentration range from 0.05 μM to 10 μM and from 0.1 μM to 1 μM, respectively. Upon 6 h of treatment, cell viability was evaluated. […] Statistical significance is indicated by *<0.05, **<0.01, ***<0.001 as determined by One-Way ANOVA. Data are shown from two independent experiments as group mean+/−SEM (n=8). […] Statistical significance is indicated by *<0.05, **<0.01, ***<0.001 as determined by One-Way ANOVA. […] Statistical significance is indicated by *<0.05, **<0.01, ***<0.001 as determined by One-Way ANOVA. […]

Series [1] relates to total Tau in SH-SY5Y-TMHT cells. As to the kind of experiment: Western Blot of total Tau. In kind it is cell-based, human. Particulars: 10 μM. The method, then: as §4
Lysates of treated cells were prepared in Laemmli buffer and 10 μg loaded into each lane of a 10% Nu-PAGE gel (Invitrogen, UK). Samples were run until the coomassie blue dye fromt was within 1 cm of the bottom of the gel. The separated proteins were transferred onto nitrocellulose and blots developed using antibodies specific for total tau (Polyclonal Rabbit Anti-Human Tau, Dako, UK (cat # A0024)) and phopho-Threonine 231 (Tau (Phospho-Thr231) Antibody, Signalway Antibody, USA (cat # 11110)) respectively. In each case the bound antibody was detected using ECL Rabbit IgG, HRP-Linked (from donkey) (GE Healthcare, UK (cat # NA934))
For orientation: A western blot detects proteins with antibodies after separation by electrophoresis.

The next series deals with FGFR1 (Homo sapiens, UniProt P11362). As to the kind of experiment: kinase inhibition assay panel. In kind it is biochemical.
Chain of FGFR1 (P11362 22-822, species assumed): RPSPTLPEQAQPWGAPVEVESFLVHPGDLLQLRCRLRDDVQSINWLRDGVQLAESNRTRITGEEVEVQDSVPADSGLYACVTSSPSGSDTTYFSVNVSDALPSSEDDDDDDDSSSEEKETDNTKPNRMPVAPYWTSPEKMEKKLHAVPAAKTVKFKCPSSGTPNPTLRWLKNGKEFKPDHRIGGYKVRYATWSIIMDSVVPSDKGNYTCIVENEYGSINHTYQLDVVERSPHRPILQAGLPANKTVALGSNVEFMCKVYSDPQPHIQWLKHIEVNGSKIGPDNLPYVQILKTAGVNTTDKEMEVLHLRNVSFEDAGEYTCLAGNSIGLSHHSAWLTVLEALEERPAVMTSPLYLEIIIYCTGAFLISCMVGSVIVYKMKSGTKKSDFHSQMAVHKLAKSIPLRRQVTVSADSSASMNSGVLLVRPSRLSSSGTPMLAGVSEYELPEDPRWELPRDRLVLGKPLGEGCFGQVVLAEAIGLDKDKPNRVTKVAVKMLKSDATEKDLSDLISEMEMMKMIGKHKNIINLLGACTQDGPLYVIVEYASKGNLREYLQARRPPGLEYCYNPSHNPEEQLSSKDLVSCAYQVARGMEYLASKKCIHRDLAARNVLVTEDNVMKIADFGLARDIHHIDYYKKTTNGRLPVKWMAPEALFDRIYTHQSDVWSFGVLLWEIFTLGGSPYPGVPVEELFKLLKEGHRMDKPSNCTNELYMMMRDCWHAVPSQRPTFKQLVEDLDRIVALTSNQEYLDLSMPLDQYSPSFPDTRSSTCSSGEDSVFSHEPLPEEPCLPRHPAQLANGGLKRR

Chain of JNK2 (P45984 whole entry, species assumed): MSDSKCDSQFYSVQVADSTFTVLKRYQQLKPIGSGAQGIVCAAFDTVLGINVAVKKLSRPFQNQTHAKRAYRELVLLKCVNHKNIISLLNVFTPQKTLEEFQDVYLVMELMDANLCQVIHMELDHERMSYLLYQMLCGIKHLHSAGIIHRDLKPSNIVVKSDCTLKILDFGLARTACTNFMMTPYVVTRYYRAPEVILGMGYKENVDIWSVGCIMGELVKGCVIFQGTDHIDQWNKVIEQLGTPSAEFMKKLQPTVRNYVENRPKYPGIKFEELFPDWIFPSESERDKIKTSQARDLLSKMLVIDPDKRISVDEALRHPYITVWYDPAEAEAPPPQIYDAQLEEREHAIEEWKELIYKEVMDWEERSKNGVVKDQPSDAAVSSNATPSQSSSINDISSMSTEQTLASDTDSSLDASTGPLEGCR
Chain of CK1g3 (Q9Y6M4 whole entry): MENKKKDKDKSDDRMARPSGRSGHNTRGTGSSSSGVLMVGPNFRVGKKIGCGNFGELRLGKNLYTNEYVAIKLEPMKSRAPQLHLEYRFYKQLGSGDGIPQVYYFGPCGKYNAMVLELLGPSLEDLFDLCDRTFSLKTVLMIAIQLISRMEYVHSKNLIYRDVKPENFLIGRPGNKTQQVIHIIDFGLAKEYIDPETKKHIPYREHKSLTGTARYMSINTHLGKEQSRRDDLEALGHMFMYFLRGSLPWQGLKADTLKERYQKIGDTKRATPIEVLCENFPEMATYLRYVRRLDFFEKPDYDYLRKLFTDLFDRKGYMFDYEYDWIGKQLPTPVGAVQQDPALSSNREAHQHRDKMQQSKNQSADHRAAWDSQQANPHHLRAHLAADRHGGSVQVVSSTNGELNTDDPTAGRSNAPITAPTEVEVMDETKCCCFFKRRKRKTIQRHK
Chain of CLK2 (P49760 whole entry, species assumed): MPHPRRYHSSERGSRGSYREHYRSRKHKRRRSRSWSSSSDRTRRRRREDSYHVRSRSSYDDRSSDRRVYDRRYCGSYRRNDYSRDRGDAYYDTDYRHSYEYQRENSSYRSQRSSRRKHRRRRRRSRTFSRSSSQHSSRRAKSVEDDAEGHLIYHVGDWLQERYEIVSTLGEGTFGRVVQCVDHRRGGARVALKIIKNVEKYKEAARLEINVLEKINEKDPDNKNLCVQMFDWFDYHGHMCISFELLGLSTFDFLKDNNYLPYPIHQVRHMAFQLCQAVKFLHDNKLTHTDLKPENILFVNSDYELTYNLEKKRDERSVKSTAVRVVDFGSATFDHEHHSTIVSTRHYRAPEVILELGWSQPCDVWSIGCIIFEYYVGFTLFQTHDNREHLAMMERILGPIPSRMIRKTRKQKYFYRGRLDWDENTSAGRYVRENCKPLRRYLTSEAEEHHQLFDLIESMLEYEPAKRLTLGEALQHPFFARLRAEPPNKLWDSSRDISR

In the case of `NC(=O)c1c(N)c(C(=O)c2ccc(F)cc2)n2ccccc12` [Compound 987, 2-amino-3-[(4-fluorophenyl)carbonyl]indolizine-1-carboxamide], on CK1δ, the “selectivity for CK1δ when compared with other kinases” value is “significant and selective inhibition for CK1δ”. At CK1g3, the “inhibition of CK1g3” value is listed as “lower than 40%”. Moreover, the “inhibition of CLK2” value on CLK2 is “lower than 40%”. For the same compound, at JNK2, the “inhibition of JNK2” value was “lower than 40%”. For the same compound, the “effect on the cell viability of SH-SY5Y-TMHT cells” value with SH-SY5Y-TMHT cells (1 and 0.5 μM) is “no cytotoxic effect”. Also, the “detectable levels of total Tau” value in series [1] is reported as “no significant difference”. Also, the “inhibition of FGFR1” value at FGFR1 is listed as “lower than 40%”.

Regarding `Nc1ncc(-c2nc3ccccc3o2)c(-c2ccncc2)n1` [Compound 324, 5-(1,3-benzoxazol-2-yl)-4-(pyridin-4-yl)pyrimidin-2-amine], at CK1δ, the “selectivity for CK1δ when compared with other kinases” value is “significant and selective inhibition for CK1δ”. Further, the “inhibition of CK1g3” value on CK1g3 is “lower than 40%”. For the same compound, the “inhibition of CLK2” value against CLK2 is listed as “lower than 40%”. Further, the “inhibition of JNK2” value at JNK2 is recorded as “lower than 40%”. Moreover, the “effect on the cell viability of SH-SY5Y-TMHT cells” value with SH-SY5Y-TMHT cells (0.05 μM to 10 μM, vs vehicle control) was “protective effect on the cell viability of SH-SY5Y-TMHT cells in a dose dependent manner”. In addition, in the series with SH-SY5Y-TMHT cells (10 μM, One-Way ANOVA), the “protective effect on cell viability, statistical significance” value was “statistically significant”. The “detectable levels of total Tau” value in series [1] is given as “no significant difference”. Further, the “inhibition of FGFR1” value against FGFR1 is on record as “lower than 40%”.

For the origin of these results see patent US9789111B2, “Casein kinase 1δ (CK 1δ) inhibitors” (Electrophoretics Limited, priority 2010, dated 2017).
